According to PubChem BioAssay AID1963863 (Molecular Pharmacology Branch, DTP, NCI, 2024):

Test system: 931267-113-T-J1-PDC KRAS spheroid with HUVEC/MSC, viability
Assay: Anticancer human tumor 931267-113-T-J1-PDC patient-derived colon adenocarcinoma cell line growth inhibition [KRAS2]
Settings: for IC50: curve of first compound; for viability, T/C: stronger effect = lower value
Source text: Multicellular complex tumor spheroid response to RAS pathway inhibitors in combination with a targeted agents in patient-derived cell lines with oncogenic KRAS variants from multiple cancer types
A high-throughput screen of multi-cell type tumor spheroids was designed to identify active combinations of targeted small molecules and KRAS pathway inhibitors. Complex spheroids include a stromal component modeled by human endothelial cells (HUVEC) and fibroblasts modeled by human mesenchymal stem cells (MSCs). The concentration ranges selected for each drug and investigational agent were based upon clinically achievable concentrations if the clinical Cmax of the agent was known.
Compounds. The drugs and investigational agents: BI-3406 (NSC825286), BAY-293 (NSC824723), batoprotafib (TNO155; NSC825523), sotorasib (AMG 510; NSC818433), MRTX1257 (NSC819558), elimusertib (BAY 1895344; NSC800525), molibresib (GSK525762; NSC774829), temuterkib (LY3214996; NSC803410), venetoclax (NSC766270), alisertib (NSC759677), olaparib (NSC753686), talazoparib (NSC767125), erdafitinib (NSC781556), ipatasertib (NSC767898), cabozantinib (NSC761068), nintedanib (NSC756659), abemaciclib (NSC768073), docetaxel (NSC628503), trametinib (NSC758246), and sapanisertib (NSC764658) were obtained from the National Cancer Institute (NCI) Developmental Therapeutics Program Chemical Repository. The FDA-approved anticancer drug set is available from the Developmental Therapeutics Program. […] The stock solutions were prepared in dimethyl sulfoxide (DMSO, Sigma-Aldrich, St. Louis, MO, cat. D2650) at 800-fold the tested concentration and stored at -70 degrees C prior to their use. All drugs and investigational agents were tested over a range starting from a high concentration at or near the clinical Cmax and decreasing in half-log increments. If the clinical Cmax for an agent had not been determined, the highest concentration tested was 10 microM.
Cell Culture. All cells were maintained in an incubator at 37 degrees C and 5% CO2 with 95% humidity. The PDC lines were cultured according to standard operating procedures established by the NCI PDMR (https://pdmr.cancer.gov/sops/default.htm). Briefly, all PDCs were thawed and cultured in Matrigel-coated flasks prepared with a working solution of 1X Ham's F-12 nutrient mix, without supplementation (Invitrogen, Waltham, MA, cat. 11765054), 100 U/mL penicillin-streptomycin (Invitrogen, cat. 15140122), and 2.5% Matrigel (Corning Inc., Corning, NY, cat. 354248) for the first three passages. All PDCs were cultured in complete DMEM/F-12 media containing advanced DMEM/F-12 (Invitrogen, cat. 12634028), 4.9% defined fetal bovine serum, heat inactivated (HyClone Laboratories Inc., Logan, UT, cat. SH30070.03HI), 389 ng/mL hydrocortisone (Sigma-Aldrich, cat. H4001), 9.7 ng/mL human EGF recombinant protein (Invitrogen, cat. PHG0313), 23.4 microg/mL adenine (Sigma-Aldrich, cat. A2786), 97.3 U/mL penicillin-streptomycin (Invitrogen, cat. 15140122), 1.9 mM L-glutamine (Invitrogen, cat. 25030081), and 9.7 microM Y-27632 dihydrochloride (Tocris Bioscience, Bristol, United Kingdom, cat. 1254). The PDCs were cultured in complete DMEM/F12 media without 9.7 microM Y-27632 dihydrochloride for at least two passages prior to the screen. The established cell line HOP-62 was cultured in RPMI 1640 medium, HEPES (Invitrogen, cat. 22400105) with 10% defined fetal bovine serum (HyClone Laboratories Inc., cat. SH30070.03) and 2 mM L-glutamine (Invitrogen, cat. 25030081). The pooled donor HUVEC were cultured in endothelial cell growth medium 2 (PromoCell, Heidelberg, Germany, cat. C-22011) and the hMSC were cultured in mesenchymal stem cell growth medium 2 (PromoCell, cat. C-28009). For all experiments, HUVEC and hMSC were used at passages </=5, while the malignant cell lines were used at passages </=15. […]

[1] = second compound 0.1 µM, first compound 0.0316 µM
[2] = second compound 0.1 µM, first compound 0.1 µM
[3] = second compound 0.1 µM, first compound 0.316 µM
[4] = second compound 0.1 µM, first compound 1 µM
[5] = second compound 0.1 µM, first compound 3.16 µM
[6] = second compound 0.1 µM, first compound 10 µM
[7] = second compound 0.316 µM, first compound 0.0316 µM
[8] = second compound 0.316 µM, first compound 0.1 µM
[9] = second compound 0.316 µM, first compound 0.316 µM
[10] = second compound 0.316 µM, first compound 1 µM
[11] = second compound 0.316 µM, first compound 3.16 µM
[12] = second compound 0.316 µM, first compound 10 µM
[13] = second compound 1 µM, first compound 0.0316 µM
[14] = second compound 1 µM, first compound 0.1 µM
[15] = second compound 1 µM, first compound 0.316 µM
[16] = second compound 1 µM, first compound 1 µM
[17] = second compound 1 µM, first compound 3.16 µM
[18] = second compound 1 µM, first compound 10 µM
[19] = second compound 3.16 µM, first compound 0.0316 µM
[20] = second compound 3.16 µM, first compound 0.1 µM
[21] = second compound 3.16 µM, first compound 0.316 µM
[22] = second compound 3.16 µM, first compound 1 µM
[23] = second compound 3.16 µM, first compound 3.16 µM
[24] = second compound 3.16 µM, first compound 10 µM
[25] = second compound 10 µM, first compound 0.0316 µM
[26] = second compound 10 µM, first compound 0.1 µM
[27] = second compound 10 µM, first compound 0.316 µM
[28] = second compound 10 µM, first compound 1 µM
[29] = second compound 10 µM, first compound 3.16 µM
[30] = second compound 10 µM, first compound 10 µM
[31] = second compound 0.1 µM, first compound 0.01 µM
[32] = second compound 0.316 µM, first compound 0.01 µM
[33] = second compound 1 µM, first compound 0.01 µM
[34] = second compound 3.16 µM, first compound 0.01 µM
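Also: compound exposure lasted 7 days before the readout.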
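For viability, T/C in this document: 100% = DMSO vehicle control viability.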

SMILES: CCNC(=O)CC1N=C(c2ccc(Cl)cc2)c2cc(OC)ccc2-n2c(C)nnc21 (stereo not given) + COc1cc2nc(C)nc(NC(C)c3cc(N)cc(C(F)(F)F)c3)c2cc1OC1CCOC1
- IC50 (second compound 0.1 µM): 1.76 µM
- IC50 (second compound 0.316 µM): 0.711 µM
- IC50 (second compound 1 µM): 0.634 µM
- IC50 (second compound 3.16 µM): 0.506 µM
- IC50 (second compound 10 µM): < 0.0316 µM
- viability, T/C [1]: 81.1%
- viability, T/C [2]: 73.4%
- viability, T/C [3]: 58.7%
- viability, T/C [4]: 63.5%
- viability, T/C [5]: 41.7%
- viability, T/C [6]: 31.9%
- viability, T/C [7]: 78.1%
- viability, T/C [8]: 62.4%
- viability, T/C [9]: 75.9%
- viability, T/C [10]: 40.7%
- viability, T/C [11]: 31.4%
- viability, T/C [12]: 26.6%
- viability, T/C [13]: 66.1%
- viability, T/C [14]: 76.3%
- viability, T/C [15]: 59.1%
- viability, T/C [16]: 42.1%
- viability, T/C [17]: 30.8%
- viability, T/C [18]: 22.4%
- viability, T/C [19]: 59.5%
- viability, T/C [20]: 64.7%
- viability, T/C [21]: 62.4%
- viability, T/C [22]: 32.5%
- viability, T/C [23]: 23.2%
- viability, T/C [24]: 22%
- viability, T/C [25]: 2.75%
- viability, T/C [26]: 3.6%
- viability, T/C [27]: 1.18%
- viability, T/C [28]: 0.76%
- viability, T/C [29]: 0.92%
- viability, T/C [30]: 0.42%

SMILES: CC1COCCN1c1cc(-c2ccnn2C)c2ccnc(-c3ccn[nH]3)c2n1 (stereo not given) + C=CC(=O)N1CCN(c2nc(OCC3CCCN3C)nc3c2CCN(c2cccc4cccc(C)c24)C3)CC1CC#N
- IC50 (second compound 0.0316 µM): 0.0441 µM
- IC50 (second compound 0.1 µM): 0.0454 µM
- IC50 (second compound 0.316 µM): 0.0398 µM
- IC50 (second compound 1 µM): 0.0256 µM
- IC50 (second compound 3.16 µM): < 0.01 µM
- viability, T/C (second compound 0.0316 µM, first compound 0.01 µM): 90.9%
- viability, T/C (second compound 0.0316 µM, first compound 0.0316 µM): 59%
- viability, T/C (second compound 0.0316 µM, first compound 0.1 µM): 27.8%
- viability, T/C (second compound 0.0316 µM, first compound 0.316 µM): 19.2%
- viability, T/C (second compound 0.0316 µM, first compound 1 µM): 18.1%
- viability, T/C (second compound 0.0316 µM, first compound 3.16 µM): 18%
- viability, T/C [31]: 122%
- viability, T/C [1]: 62.8%
- viability, T/C [2]: 22.2%
- viability, T/C [3]: 18.6%
- viability, T/C [4]: 21.6%
- viability, T/C [5]: 21.5%
- viability, T/C [32]: 75.6%
- viability, T/C [7]: 56.4%
- viability, T/C [8]: 24.7%
- viability, T/C [9]: 16.8%
- viability, T/C [10]: 18.9%
- viability, T/C [11]: 24.5%
- viability, T/C [33]: 88.9%
- viability, T/C [13]: 41.3%
- viability, T/C [14]: 12%
- viability, T/C [15]: 12.8%
- viability, T/C [16]: 21.3%
- viability, T/C [17]: 24.1%
- viability, T/C [34]: 0.25%
- viability, T/C [19]: 0.19%
- viability, T/C [20]: 0.38%
- viability, T/C [21]: 0.14%
- viability, T/C [22]: 0.14%
- viability, T/C [23]: 0.94%

SMILES: Cn1ncnc1[C@H]1c2n[nH]c(=O)c3cc(F)cc(c23)N[C@@H]1c1ccc(F)cc1 + CC1OCC2(CCN(c3cnc(Sc4ccnc(N)c4Cl)c(N)n3)CC2)C1N
- IC50 (second compound 0.1 µM): > 0.1 µM
- IC50 (second compound 0.316 µM): > 0.1 µM
- IC50 (second compound 1 µM): > 0.1 µM
- IC50 (second compound 3.16 µM): > 0.1 µM
- IC50 (second compound 10 µM): > 0.1 µM
- viability, T/C (second compound 0.1 µM, first compound 0.000316 µM): 93.9%
- viability, T/C (second compound 0.1 µM, first compound 0.001 µM): 97.8%
- viability, T/C (second compound 0.1 µM, first compound 0.00316 µM): 89.2%
- viability, T/C [31]: 89.3%
- viability, T/C [1]: 90.3%
- viability, T/C [2]: 80.5%
- viability, T/C (second compound 0.316 µM, first compound 0.000316 µM): 84%
- viability, T/C (second compound 0.316 µM, first compound 0.001 µM): 91.4%
- viability, T/C (second compound 0.316 µM, first compound 0.00316 µM): 91.2%
- viability, T/C [32]: 78.9%
- viability, T/C [7]: 60.8%
- viability, T/C [8]: 68.4%
- viability, T/C (second compound 1 µM, first compound 0.000316 µM): 85.8%
- viability, T/C (second compound 1 µM, first compound 0.001 µM): 85.3%
- viability, T/C (second compound 1 µM, first compound 0.00316 µM): 85.4%
- viability, T/C [33]: 95.2%
- viability, T/C [13]: 70.3%
- viability, T/C [14]: 51.2%
- viability, T/C (second compound 3.16 µM, first compound 0.000316 µM): 83.7%
- viability, T/C (second compound 3.16 µM, first compound 0.001 µM): 93.5%
- viability, T/C (second compound 3.16 µM, first compound 0.00316 µM): 84.7%
- viability, T/C [34]: 80.6%
- viability, T/C [19]: 91.4%
- viability, T/C [20]: 69.7%
- viability, T/C (second compound 10 µM, first compound 0.000316 µM): 77.6%
- viability, T/C (second compound 10 µM, first compound 0.001 µM): 73.5%
- viability, T/C (second compound 10 µM, first compound 0.00316 µM): 85.3%
- viability, T/C (second compound 10 µM, first compound 0.01 µM): 77.8%
- viability, T/C [25]: 71%
- viability, T/C [26]: 51%

SMILES: O=C(c1cc(Cc2n[nH]c(=O)c3ccccc23)ccc1F)N1CCN(C(=O)C2CC2)CC1 + COc1cc2nc(C)nc(NC(C)c3cc(N)cc(C(F)(F)F)c3)c2cc1OC1CCOC1
- IC50 (second compound 0.1 µM): > 10 µM
- IC50 (second compound 0.316 µM): > 10 µM
- IC50 (second compound 1 µM): > 10 µM
- IC50 (second compound 3.16 µM): > 10 µM
- IC50 (second compound 10 µM): > 10 µM
- viability, T/C [1]: 78.7%
- viability, T/C [2]: 81.4%
- viability, T/C [3]: 85.7%
- viability, T/C [4]: 87.7%
- viability, T/C [5]: 94.6%
- viability, T/C [6]: 113%
- viability, T/C [7]: 85.1%
- viability, T/C [8]: 99.7%
- viability, T/C [9]: 88.2%
- viability, T/C [10]: 70.9%
- viability, T/C [11]: 85.6%
- viability, T/C [12]: 73%
- viability, T/C [13]: 89.6%
- viability, T/C [14]: 92.1%
- viability, T/C [15]: 99.1%
- viability, T/C [16]: 112%
- viability, T/C [17]: 97.5%
- viability, T/C [18]: 84.1%
- viability, T/C [19]: 107%
- viability, T/C [20]: 87.5%
- viability, T/C [21]: 95.5%
- viability, T/C [22]: 94.4%
- viability, T/C [23]: 106%
- viability, T/C [24]: 105%
- viability, T/C [25]: 101%
- viability, T/C [26]: 112%
- viability, T/C [27]: 94.7%
- viability, T/C [28]: 98.3%
- viability, T/C [29]: 90.3%
- viability, T/C [30]: 97.3%
